Common to all, as to type: cell-based
Data set [1] relates to NCI-H2122 cells. As to the kind of experiment: Anti proliferative activity in NCI-H2122 cells by XTT assay. Particulars: Homo sapiens, NCI-H2122, 192 h, H2122 cell line; for IC50: 8 days (192 hour) incubation; for viability at 30 µM: 8 days. On the procedure:
Example 79: Determination of Anti Proliferative Activity in NCI-H2122 Cells by XTT Assay
NCI-H2122 cells (ATCC CRL-5985) were plated at 1000 cells/well in 96 well flat clear bottom plates (Corning, Cat. No 3596) using complete RPMI-1640 media. After 24 hours, compounds of present invention were added to cells from 10 mM stocks made in DMSO (Sigma Cat no. D2650). Each concentration of compound was tested in triplicate with DMSO concentration not exceeding a final percentage of 0.3 in the cells. Complete RPMI-1640 media changed at Day 3 (72 hour) and Day 6 (144 hour) along with compounds of current invention. After 8 days (192 hour) of incubation assay terminated using 50 μl of XTT reagent (Invitrogen, Cat. no X6493). XTT reagent was made by dissolving 1 mg/mi XTT in serum free media with addition of 25 μM Phenazine methosulfate (sigma Cat. no P9625). Absorbance readings were taken in spectrophotometer at 465 nm. The data was analysed using graph pad prism software. Positive control (100% survival)=Cells in complete media with 0.3% DMSO; Negative control/blank (0% survival)=Media alone containing 0.3% DMSO.
(§1) The compounds of the present invention were screened in the above mentioned assay and the results are tabulated below.
On the technique in general: Tetrazolium assays rely on reduction of a dye to a coloured formazan, in cell work by metabolically active cells.

Data set [2] has as its system OCI-Ly10 cells. The data set is described as follows: Anti proliferative activity in OCI-Ly10 cells (CTG luminescence). The note with it: for inhibition at 1 µM / inhibition at 10 µM: Homo sapiens, OCI-Ly10, 72 h. On the procedure:
Example 80: Determination of Anti Proliferative Activity in OCI-Ly10 Cells
OCI-Ly10 cells (UHN Canada) were plated at 7500 cells/well in 96 well flat bottom plates (Corning, Cat. No CLS3904) using complete Iscove's Modified Dulbecco's Medium (IMDM. After 6 hours, compounds from the present invention were added to the cells from 10 mM stocks made in DMSO (Sigma, Cat. No D2650). Each concentration of compound was tested in triplicates with DMSO concentration not exceeding a final percentage of 0.1 in the cells. After 72 hours of incubation in CO2 incubator, CTG (Promega, Cat. No G7572) was added to the wells and Luminescence readings were taken in the plate reader. Percent inhibition in proliferation was calculated using Microsoft Excel software. Positive control (100% survival)=Cells in complete media with 0.1% DMSO; Negative control/blank (0% survival)=Media alone containing 0.1% DMSO.

For data set [3], the system named is NCI-H1792 cells. As to the kind of experiment: Anti proliferative activity in NCI-H1792 cells by XTT assay. The note with it: H1792 cell line; for IC50: 72 hours incubation. On the procedure:
Example 78: Determination of Anti Proliferative Activity in NCI-H1792 Cells by XTT Assay
NCI-H1792 cells (ATCC CRL-5895) were plated at 2000 cells/well in 96 well flat clear bottom plates (Corning, Cat. No 3596) using complete RPMI media. After 24 hours, compounds of present invention were added to cells from 20 mM stocks made in DMSO (Sigma Cat no. D2650). Each concentration of compound was tested in triplicate with DMSO concentration not exceeding a final percentage of 0.3 in the cells. After 72 hours of incubation in CO2 incubator, XTT (Invitrogen, Cat. no X6493) was added to the wells. XTT was dissolved in serum free media at 1 mg/ml and absorbance readings were taken in spectrophotometer at 465 nm. The data was analysed using graph pad prism software. Positive control (100% survival)=Cells in complete media with 0.3% DMSO; Negative control/blank (0% survival)=Media alone containing 0.3% DMSO.
as §1

[4] abbreviates: Homo sapiens, NCI-H1792, 72 h, at 30 μM, 72 hours.

The text below walks through data of US11633394B2, “Substituted alkynylene compounds as anticancer agents” (Aurigene Oncology Limited, priority 2018, dated 2023).

Where only a bound is given, the exact number is not on record here.

As to `C=CC(=O)N1CCN(C(=O)NC(C)C#Cc2ccc(Cl)c(NC(=O)C3CC3)c2)CC1` (racemic) [Example 41, 4-acryloyl-N-(4-(4-chloro-3-(cyclopropanecarboxamido)phenyl)but-3-yn-2-yl) piperazine-1-carboxamide], in data set [1], the IC50 fell in the range of 10 to 25 µM. Also, in data set [2], the inhibition at 1 µM amounted to 0%. Moreover, in data set [2] (at 10 μM), 10 µM produced 36% inhibition.

In data set [1], `CC(C#Cc1ccc(Cl)c(Cl)c1)NC(=O)N1CCN(C(=O)/C=C/C(F)(F)F)CC1` (racemic) [Example 42, (E)-N-(4-(3,4-dichlorophenyl)but-3-yn-2-yl)-4-(4,4,4-trifluorobut-2-enoyl) piperazine-1-carboxamide] showed an IC50 below 10 µM and a viability at 30 µM of 0%. The inhibition at 1 µM in data set [2] stood at 81%. At 10 µM the inhibition in data set [2] (at 10 μM) was 62%.

For `C=CC(=O)N1CCN(C(=O)NC(C)C#Cc2ccc(Cl)c(Cl)c2)CC1=O` (racemic) [Example 52, 4-acryloyl-N-(4-(3,4-dichlorophenyl)but-3-yn-2-yl)-3-oxopiperazine-1-carboxamide], in data set [1], the IC50 was 10 to 25 µM and the viability at 30 µM stood at 78%. The inhibition at 1 µM in data set [2] came to 3%. Also, the inhibition at 10 µM in data set [2] (at 10 μM) is 82%.

As to `C=CC(=O)N1CCN(C(=NC#N)NC(C)C#Cc2ccc(Cl)c(Cl)c2)CC1` (racemic) [Example 54, (E)-4-acryloyl-N′-cyano-N-(4-(3,4-dichlorophenyl)but-3-yn-2-yl) piperazine-carboximidamide], the inhibition at 1 µM in data set [2] is 37%. The compound also returned an inhibition at 10 µM in data set [2] (at 10 μM) of 56%. This compound also displayed an IC50 in data set [3] (Homo sapiens, NCI-H1792, 72 h) below 10 µM. Besides, the viability at 30 µM in data set [3] (setting [4]) is 22%.

As to `C=CC(=O)N1CCN(C(=O)NC(C)C#Cc2ccc(Cl)c(Cl)c2)CC1` (single isomer, unassigned) [Example 1a, 4-acryloyl-N-(4-(3,4-dichlorophenyl)but-3-yn-2-yl) piperazine-1-carboxamide], the values for the viability at 30 µM in data set [1] and in data set [3] (setting [4]) were 26% and 45%, respectively. The compound also returned an IC50 in data set [3] (Homo sapiens, NCI-H1792, 72 h) below 10 µM.

On to `C=CC(=O)N1CCN(C(=O)NC(C)(C)C#Cc2ccc(Cl)c(Cl)c2)CC1` [Example 3], for which testing at 1 µM in data set [2] gave an inhibition of 12%. Further, at 10 µM the inhibition in data set [2] (at 10 μM) was 92%. In data set [3] (Homo sapiens, NCI-H1792, 72 h), this compound displayed an IC50 below 10 µM. The compound further displayed a viability at 30 µM in data set [3] (setting [4]) of 3%.

Turning to `C=CC(=O)N1CCN(C(=O)NC(C)C#Cc2ccc(F)c(Cl)c2)CC1` (stereo not shown) [Example 5], testing at 1 µM in data set [2] gave an inhibition of 43%. Besides, 10 µM produced 77% inhibition in data set [2] (at 10 μM). Further, the IC50 in data set [3] (Homo sapiens, NCI-H1792, 72 h) is below 10 µM. The viability at 30 µM in data set [3] (setting [4]) came to 57%.

Consider `C=CC(=O)N1CCN(C(=O)NC(C)C#Cc2ccc(OCc3ccccc3)c(Cl)c2)CC1` (stereo not shown) [Example 18], for which, in data set [1], the IC50 was below 10 µM and the viability at 30 µM was found to be 1%.

In data set [1], `CC(C#Cc1ccc(Cl)c(Cl)c1)NC(=O)N1CCN(CC2CO2)CC1` (stereo not shown) [Example 21] displayed an IC50 of 10 to 25 µM and a viability at 30 µM of 31%.

In data set [1], `C=CC(=O)N1CCN(C(=O)NC(C)C#Cc2ccc(F)c(Cl)c2)CC1` (stereo not shown) [Example 22] displayed an IC50 above 25 µM and a viability at 30 µM of 49%.

With `C=CC(=O)N1CCN(C(=O)NC2(C#Cc3ccc(Cl)c(C4(C)CC4)c3)CC2)CC1` [Example 26], the IC50 in data set [1] was in the range of 10 to 25 µM.

In turn, `C=CC(=O)N1CC(N2CCN(C(=O)NC3(C#Cc4ccc(Cl)c(C5(C)CC5)c4)CC3)CC2)C1` [Example 27] had an IC50 in data set [1] below 10 µM.

The compound `C=CC(=O)N1CCN(C(=O)NC(C)C#Cc2ccc(Cl)c(C3(C)CC3)c2)CC1` (stereo not shown) [Example 28] registered an IC50 in data set [1] of 10 to 25 µM.

In data set [1], `C=CC(=O)N1CCN(C(=O)NC(C)C#Cc2ccc(Cl)cc2Cl)CC1` (stereo not shown) [Example 30] yielded an IC50 of 10 to 25 µM and a viability at 30 µM of 19%.

In data set [1], `C=CC(=O)N1CCN(C(=O)NC(C)C#Cc2ccc(N(CC)CC)c(Cl)c2)CC1` (stereo not shown) [Example 31] gave an IC50 of 10 to 25 µM and a viability at 30 µM of 19%.

On to `C=CC(=O)N1CCN(C(=O)NC(C)C#Cc2ccc(Cl)c(N(CC)CC)c2)CC1` (stereo not shown) [Example 32], for which, in data set [1], the IC50 fell in the range of 10 to 25 µM and the viability at 30 µM was 15%.

As for `C=CC(=O)N[C@H]1CC[C@@H](NC(=O)NC(C)C#Cc2ccc(Cl)c(Cl)c2)CC1` (stereo partly shown) [Example 33], in data set [1], the IC50 was above 25 µM. In data set [3] (setting [4]), this compound displayed a viability at 30 µM of 54%.

Regarding `C=CC(=O)N1CCN(C(=O)NC2(C#Cc3cccc4ccccc34)CC2)CC1` [Example 35], the inhibition at 1 µM in data set [2] was 24%. For the same compound, the inhibition at 10 µM in data set [2] (at 10 μM) was determined as 67%.

The compound `C#Cc1cc(C#CC2(NC(=O)N3CCN(C(=O)C=C)CC3)CC2)ccc1Cl` [Example 36] displayed an inhibition at 1 µM in data set [2] of 39%. This compound also registered an inhibition at 10 µM in data set [2] (at 10 μM) of 65%.

In data set [1], `CC(C#Cc1ccc(Cl)c(Cl)c1)NC(=O)N1CCN(C(=O)/C=C/C(F)(F)F)CC1` (stereo not shown) [Example 42a, (E)-N-(4-(3,4-dichlorophenyl)but-3-yn-2-yl)-4-(4,4,4-trifluorobut-2-enoyl) piperazine-1-carboxamide] displayed a half-maximal inhibitory concentration (IC50) below 10 µM.

Regarding `CC(C)/C=C(\C#N)C(=O)N1CCN(C(=O)NC2(C#Cc3ccc(Cl)c(Cl)c3)CC2)CC1` [Example 45, (E)-4-(2-cyano-4-methylpent-2-enoyl)-N-(1-((3,4-dichlorophenyl)ethynyl)cyclopropyl) piperazine-1-carboxamide], at 1 µM the inhibition in data set [2] was 0%. The inhibition at 10 µM in data set [2] (at 10 μM) worked out at 44%.

As to `C=CC(=O)ON=C1CCN(C(=O)NC(C)C#Cc2ccc(Cl)c(Cl)c2)CC1` (stereo not shown) [Example 53], in data set [1], the IC50 was 10 to 25 µM and the viability at 30 µM turned out to be 99%.

For `C=CCN(C(=O)C=C)C1CCN(C(=O)NC(C)C#Cc2ccc(Cl)c(Cl)c2)CC1` (stereo not shown) [Example 58], the viability at 30 µM in data set [1] came to 72%. For the same compound, the IC50 in data set [3] (Homo sapiens, NCI-H1792, 72 h) was above 25 µM.

In data set [1], `CC(C#Cc1ccc(Cl)c(Cl)c1)NC(=O)N1CCN(C(=O)/C(C#N)=C/N(C)C)CC1` (stereo not shown) [Example 60] yielded an IC50 above 25 µM and a viability at 30 µM of 90%.

On to `CC(C#Cc1ccc(Cl)c(Cl)c1)NC(=O)N1CCN(C(=O)CC#N)CC1` (stereo not shown) [Example 61], for which, in data set [1], the IC50 is above 25 µM and the viability at 30 µM came out at 59%.

Take `CC(C#Cc1ccc(Cl)c(Cl)c1)NC(=O)N1CCC(n2ccnc2)CC1` (stereo not shown) [Example 62]: in data set [1], the IC50 was 10 to 25 µM and the viability at 30 µM amounted to 33%.

In data set [1], `C=CC(=O)N1CCN(C(=O)NC(C)C#Cc2ccc(F)cc2)CC1` (stereo not shown) [Example 64] showed an IC50 above 25 µM and a viability at 30 µM of 56%.

In data set [1], `C=CC(=O)N1CC(C(=O)N2CCN(C(=O)NC3(C#Cc4ccc(Cl)c(Cl)c4)CC3)CC2)C1` [Example 68, 4-(1-acryloylazetidine-3-carbonyl)-N-(1-((3,4-dichlorophenyl)ethynyl)cyclopropyl) piperazine-1-carboxamide] had an IC50 above 25 µM.

In data set [2] (at 10 μM), `C=CC(=O)N1CCC(C(=O)NC(C)C#Cc2ccc(Cl)c(Cl)c2)C1` (stereo not shown) [Example 71] showed an inhibition at 10 µM of 62%. Further, in data set [2] (72 hours), the “% inhibition (at 1 μM)” value turned out to be 9%. For the same compound, in data set [3] (Homo sapiens, NCI-H1792, 72 h), the IC50 lay in the range of 10 to 25 µM. Further, in data set [3] (setting [4]), the viability at 30 µM was 26%.

Consider `C=CC(=O)N1CCC(C(=O)NC(C)C#Cc2ccc(Cl)c(Cl)c2)C1` (stereo not shown) [Example 72], for which the “% inhibition (at 1 μM)” value in data set [2] (72 hours) is listed as 4%. Besides, in data set [2] (at 10 μM, 72 hours), the “% inhibition (at 10 μM)” value was 55%. This compound yielded an IC50 in data set [3] of 10 to 25 µM. The “% Viability (at 30 μM)” value in data set [3] (at 30 μM, 72 hours) came to 27%.

As for `C=CC(=O)NC1(C(=O)NC(C)C#Cc2ccc(Cl)c(Cl)c2)CCCC1` (stereo not shown) [Example 74], in data set [1], the IC50 was above 25 µM and the viability at 30 µM is 60%.

A word on the IC50: it is the point on the concentration scale where inhibition reaches its midpoint. For orientation: inhibition means the share of the control response that was lost under treatment. Lower therefore signals little suppression. In general, viability refers to the share of living cells, or the viability signal relative to a control.
